Results on 22 compounds are retold here after PubChem BioAssay (NCI).

Test systems include MDA-MB-435; DU-145 prostate; HS 578T breast.
Common to all, as to assay: NCI anticancer screen, dose series, 48 h

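Step 1: Grow cells in 96-well plates. Step 2: Expose to compound for 48 hours at 5 concentrations. Step 3: Interpolate endpoints linearly; if unreached, use highest concentration. GI50: concentration for 50% inhibition of growth. The concentration for full growth arrest is given as TGI.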 Bounds are passed on as bounds.

Take `C/C1=C\CC[C@@](C)(O)[C@@H]2CC3[C@@H](OC(=O)C34CC4)[C@@H](O2)[C@H](C)CCC1` (stereo partly drawn): in the experiment with MDA-MB-435, the GI50 is 20.3 µM and the TGI amounted to 44.2 µM.

For the compound `COc1ccc2c(c1)nc(N)c1c3cccnc3cn21`, in the experiment on DU-145 prostate, the GI50 is 0.0561 µM and the TGI was above 33.6 µM. Also, in the experiment on HS 578T breast, the GI50 is 0.0951 µM and the TGI was above 49.6 µM.

Turning to `CC(C)OC(=O)c1ccc2[nH]c(O)c(C(=Nc3ccc(N(C)C(=O)CN4CCN(C)CC4)cc3)c3ccccc3)c2c1`, the figures for the GI50 in the experiment with DU-145 prostate, in the experiment with HS 578T breast and with MDA-MB-435 were 0.408 µM, 0.0994 µM and 1.07 µM, respectively. In addition, the TGI with DU-145 prostate was determined as 1.63 µM; with HS 578T breast, 1.15 µM; in the experiment with MDA-MB-435 it was 2.3 µM.

`CC1=CC(=O)C(C(C)=Nc2ccccc2Cl)C(=O)O1` (stereo not drawn): the GI50 in the experiment on DU-145 prostate, in the experiment with HS 578T breast and with MDA-MB-435 was above 100 µM in each case. Moreover, the TGI with DU-145 prostate, with HS 578T breast and with MDA-MB-435 was above 100 µM in each case.

As for `CCOC(=O)c1cnn(-c2ccnc3c(C(F)(F)F)cccc23)c1N`, the GI50 in the experiment with DU-145 prostate is above 100 µM; with HS 578T breast it was 24.8 µM; in the experiment on MDA-MB-435, above 100 µM. Further, the TGI with DU-145 prostate, in the experiment with HS 578T breast and with MDA-MB-435 was above 100 µM throughout.

Take `Fc1ccc(Nc2nccc(-c3c(-c4ccc(C(F)(F)F)cc4)nn4ncccc34)n2)cc1F`: the GI50 in the experiment with DU-145 prostate, in the experiment with HS 578T breast and in the experiment on MDA-MB-435 was above 25 µM in each case. The TGI with DU-145 prostate, in the experiment with HS 578T breast and in the experiment on MDA-MB-435 was above 25 µM in each case.

As for `CCN1C(=O)N(CC)C2C1NN=c1s/c(=C3\C(=O)N(C)c4ccccc43)c(=O)n12` (stereo not drawn), the GI50 in the experiment with DU-145 prostate was 2.16 µM; in the experiment with HS 578T breast, 0.542 µM; in the experiment with MDA-MB-435, 0.221 µM. In addition, the TGI in the experiment with DU-145 prostate is above 100 µM; with HS 578T breast, above 39.9 µM; in the experiment on MDA-MB-435, 0.663 µM.

Turning to `COc1ccccc1-c1c(C)nn2c(NCc3ccccn3)cc(C)nc12`, the GI50 with DU-145 prostate is above 40.2 µM; with HS 578T breast, above 44.7 µM; in the experiment on MDA-MB-435, 23 µM. Moreover, the TGI with DU-145 prostate, in the experiment on HS 578T breast and with MDA-MB-435 was above 50 µM each time.

On to `C=C[C@]1(C)C=C2C(=O)[C@@]3(O)OC[C@@]4(CCCC(C)(C)C43O)C2(O)C(O)C1` (stereo partly drawn), for which the GI50 in the experiment on DU-145 prostate was 3.03 µM; in the experiment on HS 578T breast, 5.13 µM; in the experiment with MDA-MB-435 it was 3.95 µM. The TGI with DU-145 prostate turned out to be 11.6 µM; in the experiment on HS 578T breast it was 22.2 µM; in the experiment with MDA-MB-435, 14.9 µM.

Regarding `COc1ccc2c(c1)C(=O)c1c-2n(CCCN2CCOCC2)c(=O)c2ccccc12`, the figures for the GI50 in the experiment with DU-145 prostate, with HS 578T breast and with MDA-MB-435 were 2.39 µM, 8.95 µM and 4.54 µM, respectively. For the same compound, the values for the TGI with DU-145 prostate, in the experiment with HS 578T breast and in the experiment on MDA-MB-435 were 10.2 µM, above 100 µM and above 100 µM, respectively.

Regarding `CCOC(=O)c1c(C)n(Cc2ccc(Cl)cc2Cl)c2c1cc1oc(=O)c(=O)n3c(Cc4ccccc4)nc2c13`, the GI50 is 2.45 µM in the experiment with DU-145 prostate, 1.21 µM with HS 578T breast and 4.55 µM in the experiment on MDA-MB-435. In addition, the figures for the TGI in the experiment with DU-145 prostate, in the experiment on HS 578T breast and with MDA-MB-435 were 6.64 µM, 3.12 µM and 16.9 µM, respectively.

`COc1cc2cc(Oc3ccc(NC(=O)c4ccc(Cl)c(C(F)(F)F)c4)cc3)c(C)nc2cc1OC`: the figures for the GI50 in the experiment with DU-145 prostate, in the experiment on HS 578T breast and in the experiment with MDA-MB-435 were 26.2 µM, 16.6 µM and 14.7 µM, respectively. The TGI is above 100 µM with DU-145 prostate, 64 µM in the experiment with HS 578T breast and above 100 µM in the experiment on MDA-MB-435.

With `Cc1cc(N2CCCC2)nc(N(CCCNc2ccnc3cc(Cl)ccc23)Cc2ccc3c(c2)OCO3)n1`, in the experiment with HS 578T breast, the GI50 was 1.74 µM and the TGI was 4.21 µM. In the experiment with MDA-MB-435, the GI50 is 1.26 µM and the TGI came to 2.56 µM.

For `CS(=O)(=O)Nc1cc(-c2ccc3ncnc(Nc4ccc5c(cnn5Cc5ccc(F)cc5)c4)c3c2)cnc1Cl`, the GI50 with DU-145 prostate is 2.66 µM; in the experiment on HS 578T breast it was 0.246 µM; in the experiment on MDA-MB-435, 1.1 µM. For the same compound, the TGI with DU-145 prostate amounted to 19.1 µM; in the experiment with HS 578T breast it was 2.04 µM; in the experiment on MDA-MB-435, 3.67 µM.

`COc1ccc(-c2ccc(/C=N/n3c(COc4ccc(Cl)cc4)n[nH]c3=S)o2)c([N+](=O)[O-])c1`: in the experiment on HS 578T breast, the GI50 is 47.7 µM and the TGI is above 100 µM. Moreover, in the experiment with MDA-MB-435, the GI50 is 25.9 µM and the TGI is above 100 µM.

Consider `CC(C)(Br)C(=O)/C=C/c1ccccc1`, for which the TGI in the experiment with DU-145 prostate is 22.9 µM; in the experiment with HS 578T breast, above 60.3 µM; with MDA-MB-435, 22.2 µM.

In the case of `O=C(NN1C(=O)CSC1c1ccc(Cl)cc1)c1[nH]c2ccc(F)cc2c1-c1ccccc1` (stereo not drawn), the figures for the GI50 in the experiment on DU-145 prostate, in the experiment on HS 578T breast and in the experiment on MDA-MB-435 were 2.2 µM, 2.84 µM and 2.94 µM, respectively. For the same compound, the TGI is 4.63 µM with DU-145 prostate, 9.37 µM with HS 578T breast and 9.13 µM in the experiment on MDA-MB-435.

`O=[N+]([O-])c1ccc(CS(=O)Cc2ccccc2)cc1` (stereo not drawn): the TGI with DU-145 prostate, in the experiment with HS 578T breast and in the experiment with MDA-MB-435 was above 100 µM in each case.

Regarding `Cc1ncc([N+](=O)[O-])n1CCNC(=O)CCCn1cnc([N+](=O)[O-])n1`, the TGI in the experiment on DU-145 prostate, in the experiment on HS 578T breast and in the experiment on MDA-MB-435 was above 100 µM each time.

As for `CN(C)c1ccc(C(N)=O)cn1`, the TGI in the experiment with DU-145 prostate, in the experiment on HS 578T breast and in the experiment with MDA-MB-435 was above 100 µM throughout.

With `COc1cnc2c(c1)C(=O)c1c-2n(CCCN2CCCC2)c(=O)c2cc(Cl)ccc12`, the GI50 was 6.87 µM in the experiment with HS 578T breast and 5.06 µM with MDA-MB-435. Further, the TGI in the experiment on HS 578T breast amounted to 17.9 µM; with MDA-MB-435, 10.9 µM.

As to `Oc1cc(Cl)ccc1Oc1ccc(Cl)cc1Cl`, the GI50 in the experiment on DU-145 prostate is 4.61 µM; in the experiment on HS 578T breast it was 4.54 µM; with MDA-MB-435, 2.86 µM. Besides, the TGI with DU-145 prostate worked out at 16.3 µM; in the experiment with HS 578T breast, 42.6 µM; with MDA-MB-435, 9.24 µM.
